From patent publication US20030166645A1, “Novel nitrofuran-containing heterocyclic compounds and uses thereof” (priority 2001, published 2003)
Values after ≈ are worked out from the molar mass of the structure shown.

Assays:
Bacteroides vulgatus = assay: Antimicrobial agar dilution test of anaerobic bacteria (MIC); type: cell-based; conditions: 48 h
[1] = test system: Bacteroides thetaiotaomicron; type: cell-based; conditions: agar dilution, anaerobic, 48 h
Bacteroides fragilis = assay: Antimicrobial agar dilution test of anaerobic bacteria (MIC); type: cell-based; conditions: 48 h
H influenzae = assay: Microdilution antimicrobial susceptibility test (MIC); type: cell-based; conditions: broth microdilution, 18-24 h, MIC = 90% inhibition of growth; for MIC: read-out: MIC H influenzae MIC4
P aeruginosa = assay: as above; type: cell-based; conditions: broth microdilution, 18-24 h, MIC = 90% inhibition of growth; for MIC: read-out: MIC P aeruginosa MIC2
E coli (ImpA) = assay: as above; type: cell-based; conditions: broth microdilution, 18-24 h, MIC = 90% inhibition of growth; for MIC: read-out: MIC E coli (ImpA) MIC9
Method: Microdilution Antimicrobial Susceptibility Test Assay
Stock solutions of tested compounds were prepared in N,N-dimethylformamide (DMF) at a concentration of 5 mg/mL. Working solutions of the tested compounds were then prepared from the stock solutions, in Mueller-Hinton broth (MHB) with a starting concentration of 64 μg/mL.
Bacterial inocula were prepared from overnight culture (i.e., one fresh colony from agar plate in 5 ml MHB; H. influenzae was grown in MHB with the addition of yeast extract, haematin, and NAD), centrifuged 2×5 min/3000 rpm (for S. pneumoniae and H. influenzae, 2×10 min/3000 rpm), and dispensed in 5 ml of fresh MHB each time, such that the bacterial suspension is diluted to obtain 100 colony forming units (cfu) in a microplate well (100 μl total volume).
Microplate wells were filled with two-fold dilutions of test compound (50 Al), starting with 64 μg/ml. Wells were then filled with 50 μl of bacterial inoculum (final volume: 100 μl/well). The plates were incubated at 37° C. for 18-24 hours (S. pneumoniae was grown in a CO2-enriched atmosphere).

S pneumoniae = assay: as above; type: cell-based; conditions: broth microdilution, 18-24 h, CO2-enriched atmosphere, MIC = 90% inhibition of growth; for MIC: read-out: MIC S pneumoniae MIC6
S aureus = assay: as above; type: cell-based; conditions: broth microdilution, 18-24 h, MIC = 90% inhibition of growth; for MIC: read-out: MIC S aureus MIC2
S cerevisiae = assay: as above; type: cell-based; conditions: broth microdilution, 18-24 h, MIC = 90% inhibition of growth; for MIC: read-out: MIC S cerevisiae MIC7
E faecalis = assay: as above; type: cell-based; conditions: broth microdilution, 18-24 h, MIC = 90% inhibition of growth; for MIC: read-out: MIC E faecalis MIC2
M. catarrhalis = assay: as above; type: cell-based; conditions: broth microdilution, 18-24 h, MIC = 90% inhibition of growth; for MIC: Moraxella catarrhalis, read-out: MIC M. catarrhalis MIC2
E coli = assay: as above; type: cell-based; conditions: broth microdilution, 18-24 h, MIC = 90% inhibition of growth; for MIC: read-out: MIC E coli MIC2
E. coli = assay: Systemic bacterial infection model, mice infected with E. coli

| Structure (SMILES) | MIC H influenzae MIC4 (H influenzae) [µg/mL] | MIC P aeruginosa MIC2 (P aeruginosa) [µg/mL] | MIC E coli (ImpA) MIC9 (E coli (ImpA)) [µg/mL] | MIC S pneumoniae MIC6 (S pneumoniae) [µg/mL] | MIC S aureus MIC2 (S aureus) [µg/mL] | MIC S cerevisiae MIC7 (S cerevisiae) [µg/mL] | MIC E faecalis MIC2 (E faecalis) [µg/mL] | MIC M. catarrhalis MIC2 (M. catarrhalis) [µg/mL] | MIC E coli MIC2 (E coli) [µg/mL] | other results |
| --- | --- | --- | --- | --- | --- | --- | --- | --- | --- | --- |
| CC[C@H]1OC(=O)[C@H](C)[C@@H](O[C@H]2C[C@@](C)(OC)[C@@H](O)[C@H](C)O2)[C@H](C)[C@@H](O[C@@H]2O[C@H](C)C[C@H](N(C)C)[C@H]2O)[C@](C)(O)C[C@@H](C)CN(C)[C@H](C)[C@@H](O)[C@]1(C)O [Azithromycin] | – | – | – | – | – | – | – | – | – | MIC Bacteroides vulgatus (Bacteroides vulgatus): 1 µg/mL (≈ 1.34 µM); MIC Bacteroides thetaiotaomicron [1]: 4 µg/mL (≈ 5.34 µM); MIC Bacteroides fragilis (Bacteroides fragilis; first B. fragilis column): 4 µg/mL (≈ 5.34 µM); MIC Bacteroides fragilis (Bacteroides fragilis; second B. fragilis column): 4 µg/mL (≈ 5.34 µM); MIC Bacteroides fragilis (Bacteroides fragilis; third B. fragilis column): 4 µg/mL (≈ 5.34 µM) |
| O=C(N[C@H](CO)[C@H](O)c1ccc([N+](=O)[O-])cc1)C(Cl)Cl [Chloramphenicol] | – | – | – | – | – | – | – | – | – | MIC Bacteroides vulgatus (Bacteroides vulgatus): < 0.125 µg/mL; MIC Bacteroides thetaiotaomicron [1]: 4 µg/mL (≈ 12.4 µM); MIC Bacteroides fragilis (Bacteroides fragilis; first B. fragilis column): 4 µg/mL (≈ 12.4 µM); MIC Bacteroides fragilis (Bacteroides fragilis; second B. fragilis column): 4 µg/mL (≈ 12.4 µM); MIC Bacteroides fragilis (Bacteroides fragilis; third B. fragilis column): 4 µg/mL (≈ 12.4 µM) |
| CCC[C@@H]1C[C@@H](C(=O)N[C@@H]([C@H]2O[C@H](SC)[C@H](O)[C@@H](O)[C@H]2O)[C@H](C)Cl)N(C)C1 [Clindamycin] | – | – | – | – | – | – | – | – | – | MIC Bacteroides vulgatus (Bacteroides vulgatus): < 0.125 µg/mL; MIC Bacteroides fragilis (Bacteroides fragilis; first B. fragilis column): 1 µg/mL (≈ 2.35 µM); MIC Bacteroides fragilis (Bacteroides fragilis; second B. fragilis column): 1 µg/mL (≈ 2.35 µM); MIC Bacteroides fragilis (Bacteroides fragilis; third B. fragilis column): 1 µg/mL (≈ 2.35 µM) |
| CNS(=O)(=O)c1nnc(-c2ccc([N+](=O)[O-])o2)n1C [Compound 106, 5-[2-(5-Nitro)furyl]-4-methyl-4H-1,2,4-triazole-3-methyl Sulfonamide] | – | – | – | – | – | – | – | – | – | MIC (H influenzae): 32 µg/mL (≈ 111 µM); MIC (P aeruginosa): > 64 µg/mL; MIC (E coli (ImpA)): 4 µg/mL (≈ 13.9 µM); MIC (S pneumoniae): 64 µg/mL (≈ 223 µM); MIC (S aureus): > 64 µg/mL; MIC (S cerevisiae): 64 µg/mL (≈ 223 µM); MIC (E faecalis): > 64 µg/mL; MIC (M. catarrhalis): 2 µg/mL (≈ 6.96 µM); MIC (E coli): 8 µg/mL (≈ 27.8 µM) |
| Cn1c(-c2ccc([N+](=O)[O-])o2)nnc1S(=O)(=O)O [Compound 107, 5-[2-(5-Nitro)furyl]-4-methyl-4H-1,2,4-triazole-3-sulfonic Acid] | – | – | – | – | – | – | – | – | – | MIC (H influenzae): 16 µg/mL (≈ 58.3 µM); MIC (P aeruginosa): > 64 µg/mL; MIC (E coli (ImpA)): 4 µg/mL (≈ 14.6 µM); Survival (%) (E. coli; Study #4, 50 mg/kg IP QD × 3, 6 days observation): 70%; Survival (%) (E. coli; Study #4, 75 mg/kg IP QD × 3, 6 days observation): 90%; MIC (S pneumoniae): 32 µg/mL (≈ 117 µM); MIC (S aureus): 16 µg/mL (≈ 58.3 µM); MIC (S cerevisiae): 64 µg/mL (≈ 233 µM); MIC (E faecalis): > 64 µg/mL; MIC (M. catarrhalis): 1 µg/mL (≈ 3.65 µM); MIC (E coli): 2 µg/mL (≈ 7.29 µM) |
| Cn1c(-c2ccc([N+](=O)[O-])o2)nnc1S(=O)(=O)Nc1ccccc1 [Compound 123] | 16 (≈ 45.8 µM) | >64 | 16 (≈ 45.8 µM) | 8 (≈ 22.9 µM) | 64 (≈ 183 µM) | >64 | 64 (≈ 183 µM) | 1 (≈ 2.86 µM) | >64 | – |
| O=[N+]([O-])c1ccc(-c2nnc(S)n2Cc2ccco2)o1 [Compound 125] | 4 (≈ 13.7 µM) | >64 | 4 (≈ 13.7 µM) | 8 (≈ 27.4 µM) | 8 (≈ 27.4 µM) | >64 | 64 (≈ 219 µM) | 0.5 (≈ 1.71 µM) | >64 | – |
| O=[N+]([O-])c1ccc(-c2nnc(S(=O)(=O)O)n2-c2ccccc2)o1 [Compound 127] | >64 | >64 | 64 (≈ 190 µM) | >64 | >64 | >64 | >64 | 32 (≈ 95.2 µM) | >64 | – |
| O=[N+]([O-])c1ccc(-c2nnc(S(=O)(=O)O)n2Cc2ccccc2)o1 [Compound 128] | 64 (≈ 183 µM) | >64 | >64 | 64 (≈ 183 µM) | >64 | >64 | >64 | 16 (≈ 45.7 µM) | >64 | – |
| O=[N+]([O-])c1ccc(-c2nnc(S(=O)(=O)O)n2C2CCCCC2)o1 [Compound 131] | 64 (≈ 187 µM) | >64 | >64 | 64 (≈ 187 µM) | >64 | >64 | >64 | 8 (≈ 23.4 µM) | >64 | – |
| O=[N+]([O-])c1ccc(-c2nnc(S(=O)(=O)O)n2-c2ccc(Cl)cc2)o1 [Compound 132] | 8 (≈ 21.6 µM) | >64 | 16 (≈ 43.2 µM) | 32 (≈ 86.3 µM) | 32 (≈ 86.3 µM) | 64 (≈ 173 µM) | >64 | 4 (≈ 10.8 µM) | >64 | – |
| O=[N+]([O-])c1ccc(-c2nnc(S)n2-c2cccc(Cl)c2)o1 [Compound 140] | 4 (≈ 12.4 µM) | >64 | 0.5 (≈ 1.55 µM) | 2 (≈ 6.2 µM) | 1 (≈ 3.1 µM) | >64 | 16 (≈ 49.6 µM) | <0.12 | >64 | – |
| O=[N+]([O-])c1ccc(-c2nnc(S)n2-c2ccc(Oc3ccccc3)cc2)o1 [Compound 143] | >64 | >64 | <0.12 | 0.5 (≈ 1.31 µM) | 0.25 (≈ 0.657 µM) | >64 | 1 (≈ 2.63 µM) | <0.12 | >64 | – |
| C[C@@H](O)[C@H]1C(=O)N2C(C(=O)O)=C(SCCN=CN)C[C@H]12 [Imipenem] | – | – | – | – | – | – | – | – | – | MIC Bacteroides vulgatus (Bacteroides vulgatus): < 0.125 µg/mL; MIC Bacteroides thetaiotaomicron [1]: < 0.125 µg/mL; MIC Bacteroides fragilis (Bacteroides fragilis; first B. fragilis column): < 0.125 µg/mL; MIC Bacteroides fragilis (Bacteroides fragilis; second B. fragilis column): < 0.125 µg/mL; MIC Bacteroides fragilis (Bacteroides fragilis; third B. fragilis column): < 0.125 µg/mL |
| COc1cc(Cc2cnc(N)nc2N)cc(OC)c1OC [Trimethoprim, reference compound] | – | – | – | – | – | – | – | – | – | MIC (H influenzae): < 0.12 µg/mL; MIC (P aeruginosa): > 64 µg/mL; MIC (E coli (ImpA)): < 0.12 µg/mL; MIC (S pneumoniae): 8 µg/mL (≈ 27.6 µM); MIC (S aureus): 2 µg/mL (≈ 6.89 µM); MIC (S cerevisiae): > 64 µg/mL; MIC (E faecalis): < 0.12 µg/mL; MIC (M. catarrhalis): 32 µg/mL (≈ 110 µM); MIC (E coli): 0.25 µg/mL (≈ 0.861 µM) |
